Assays:
[1] = target: human PDHK2 (hPDHK2) (Homo sapiens (Human), UniProt Q15119); experiment: Inhibitory action of PDHK2 activity in vitro (residual PDH activity after PDHK reaction); type: biochemical; settings: for IC50: PDH/hPDHK2 complex solution, PDHK reaction at room temperature for 45 min, NADH absorbance at 340 nm, read-out: kPDK2 IC50
Procedure: (§1) The inhibitory action of PDHK activity was assessed indirectly by measuring the residual PDH activity after PDHK reaction in the presence of a test compound.
(Inhibitory Action of PDHK2 Activity)
In the case of human PDHK2 (hPDHK2, NCBI Reference Database Accession number NM_002611.4), modified hPDHK2 cDNA wherein FLAG-Tag sequence was added to the N terminus of hPDHK2 cDNA clone (pReceiver-M01/PDK2-GeneCopoeia) as the base was prepared by PCR and ligated to the NdeI/EcoRI site of pET-17b vector. The recombinant construct was transformed into Escherichia coli DH5a. The recombinant clones were identified, and plasmid DNA was isolated and subjected to the DNA sequence analysis. One clone which had the expected nucleic acid sequence was selected for expression work.
For expression of hPDHK2 activity, Escherichia coli strain BL21(DE3) cells were transformed with the pET17b vector containing modified hPDHK2 cDNA. The Escherichia coli were grown to an optical density 0.6 ([…]) at 30° C. Protein expression was induced by the addition of 500 μmol/L isopropyl-β-thiogalactopyranoside. The Escherichia coli were cultured at 20° C. for 17-18 hr and harvested by centrifugation. The harvested Escherichia coli was resuspended in a suspension buffer (20 mmol/L HEPES-NaOH, 500 mmol/L sodium chloride, 1% ethylene glycol, 0.1% pluronic F-68 (pH 8.0), cOmplete, EDTA-free (pH 8.0)), and disrupted by a microfluidizer. The precipitate was removed by centrifugation and the supernatant was added to DDDDK-tagged Protein PURIFICATION GEL. DDDDK-tagged Protein PURIFICATION GEL was washed with a washing buffer (20 mmol/L HEPES-NaOH, 500 mmol/L sodium chloride, 1% ethylene glycol, 0.1% pluronic F-68 (pH 8.0)) and the bound protein was eluted with elution buffer 1 (20 mmol/L HEPES-NaOH, 100 μg/mL peptide (amino acid sequence DYKDDDDK) (SEQ ID NO: 1), 500 mmol/L sodium chloride, 1% ethylene glycol, 0.1% pluronic F-68 (pH 8.0)). The eluted fractions containing FLAG-Tagged protein were pooled, concentrated by an ultrafiltration method, added to a gel filtration column (HiLoad 26/60 Superdex 200), and eluted with elution buffer 2 (20 mmol/L HEPES-NaOH, 150 mmol/L sodium chloride, 0.5 mmol/L ethylenediaminetetraacetic acid (EDTA), 1% ethylene glycol, 0.1% pluronic F-68 (pH 8.0)). The eluted fractions were pooled and preserved at −80° C.
0.025 U/mL PDH and 0.5 μg/mL hPDHK2 were mixed in an assay buffer (50 mmol/L 3-morpholinopropanesulfonic acid (pH 7.0), 20 mmol/L dipotassium hydrogen phosphate, 60 mmol/L potassium chloride, 2 mmol/L magnesium chloride, 0.4 mmol/L EDTA, 0.2% poloxamer, 2 mmol/L dithiothreitol), and the mixture was incubated at 4° C. overnight to obtain a PDH/hPDHK2 complex solution. In the assay buffer, 0.025 U/mL PDH was mixed and incubated at 4° C. overnight to prepare a PDH solution.
The test compounds were diluted with DMSO. To measure an inhibitory action of the test compound on the PDHK activity in the PDH/hPDHK2 complex solution, PDH/hPDHK2 complex solution (20 μL), test compound (1.5 μL) and 1.06 μmol/L ATP (diluted with assay buffer) (8.5 μL) were added to a 384 well microplate and PDHK reaction was performed at room temperature for 45 min (test compound well). DMSO (1.5 μL) was added to control wells instead of test compound. In addition, DMSO (1.5 μL) was added to blank wells instead of the test compound, and PDH solution was added instead of the PDH/hPDHK2 complex solution. To measure an inhibitory action of the test compound on the PDHK activity inherent in the PDH solution, a test compound was added and the PDH solution instead of the PDH/hPDHK2 complex solution was added to a blank+test compound well.
Then, 10 μL of substrates (5 mmol/L sodium pyruvate, 5 mmol/L Coenzyme A, 12 mmol/L NAD, 5 mmol/L thiamine pyrophosphate, diluted with assay buffer) were added. The mixture was incubated at room temperature for 90 min, and the residual PDH activity was measured. […]

[2] = target: human PDHK1 (hPDHK1) (Homo sapiens (Human), UniProt Q15118); experiment: Inhibitory action of PDHK1 activity in vitro (residual PDH activity after PDHK reaction); type: biochemical; settings: for IC50: PDH/hPDHK1 complex solution, PDHK reaction at room temperature for 45 min, NADH absorbance at 340 nm, read-out: hPDK1 IC50; for inhibition at 0.003 µM: at 3 nmol/L, shown when IC50 value could not be calculated, read-out: hPDHK1 inhibitory rate at the lowest concentration of the test compound
Procedure: as §1
(Inhibitory Action of PDHK1 Activity)
In the case of human PDHK1 (hPDHK1, NCBI Reference Database Accession number NM_002610.3), a 1.3 kbp fragment encoding this protein was isolated from human liver cDNA by polymerase chain reaction (PCR). Modified hPDHK1 cDNA wherein FLAG-Tag sequence was added to the N terminus was prepared by PCR and ligated to the NdeI/EcoRI site of pET-17b vector (Merck MGaA, model number 69663-3). The recombinant construct was transformed into Escherichia coli DH5a (TOYOBO, model number DNA-903). The recombinant clones were identified, and plasmid DNA was isolated and subjected to the DNA sequence analysis. One clone which had the expected nucleic acid sequence was selected for expression work.
For expression of hPDHK1 activity, Escherichia coli strain BL21(DE3) cells (Merck KGaA, model number 69450-4) were transformed with the pET17b vector containing modified hPDHK1 cDNA. The Escherichia coli were grown to an optical density 0.6 ([…]) at 30° C. Protein expression was induced by the addition of 500 μmol/L isopropyl-β-thiogalactopyranoside. The Escherichia coli were cultured at 20° C. for 17-18 hr and harvested by centrifugation.
The harvested Escherichia coli was resuspended in a suspension buffer (20 mmol/L N-(2-hydroxyethyl)piperazine-N′-2-ethanesulfonic acid-sodium hydroxide (HEPES-NaOH), 500 mmol/L sodium chloride, 1% ethylene glycol, and 0.1% polyoxyethylene-polyoxypropylene block copolymer (Pluronic F-68), complete, EDTA-free (pH 8.0)) and disrupted by a microfluidizer M-110H (MIZUHO INDUSTRIAL CO., LTD.) or ultrasonication. The precipitate was removed by centrifugation and the supernatant was added to DDDDK-tagged Protein PURIFICATION GEL (MBL, model number 3329). DDDDK-tagged Protein PURIFICATION GEL was washed with a washing buffer (20 mmol/L HEPES-NaOH, 500 mmol/L sodium chloride, 1% ethylene glycol, 0.1% pluronic F-68 (pH 8.0)) and the bound protein was eluted with elution buffer 1 (20 mmol/L HEPES-NaOH, 100 μg/mL peptide (amino acid sequence DYKDDDDK) (SEQ ID NO: 1), 500 mmol/L sodium chloride, 1% ethylene glycol, 0.1% pluronic F-68 (pH 8.0)).
The eluted fractions containing FLAG-Tagged protein were pooled, concentrated by an ultrafiltration method, added to a gel filtration column (HiLoad 26/60 Superdex 200 (GE Healthcare, model number 17-1070-01)), and eluted with elution buffer 2 (20 mmol/L HEPES-NaOH, 150 mmol/L sodium chloride, 0.5 mmol/L ethylenediaminetetraacetic acid (EDTA), 1% ethylene glycol, 0.1% pluronic F-68 (pH 8.0)). The eluted fractions were pooled and preserved at −80° C.
0.025 U/mL PDH (porcine heart PDH complex, Sigma P7032) and 0.5 μg/mL hPDHK1 were mixed in an assay buffer (50 mmol/L 3-morpholinopropanesulfonic acid (pH 7.0), 20 mmol/L dipotassium hydrogen phosphate, 60 mmol/L potassium chloride, 2 mmol/L magnesium chloride, 0.4 mmol/L EDTA, 0.2% poloxamer, 2 mmol/L dithiothreitol), and the mixture was incubated at 4° C. overnight to obtain a PDH/hPDHK1 complex solution. In the assay buffer, 0.025 U/mL PDH was mixed and incubated at 4° C. overnight to prepare a PDH solution.
The test compounds were diluted with dimethyl sulfoxide (DMSO). To measure an inhibitory action of the test compound on the PDHK activity in the PDH/hPDHK1 complex solution, PDH/hPDHK1 complex solution (20 μL), test compound (1.5 μL) and 0.353 μmol/L ATP (diluted with assay buffer) (8.5 μL) were added to a 384 well microplate (Greiner Bio-One 781801) and PDHK reaction was performed at room temperature for 45 min (test compound well). DMSO (1.5 μL) was added to control wells instead of test compound. In addition, DMSO (1.5 μL) was added to blank wells instead of the test compound, and PDH solution was added instead of the PDH/hPDHK1 complex solution. […]

Sequence of human PDHK1 (hPDHK1) (Q15118 29-436): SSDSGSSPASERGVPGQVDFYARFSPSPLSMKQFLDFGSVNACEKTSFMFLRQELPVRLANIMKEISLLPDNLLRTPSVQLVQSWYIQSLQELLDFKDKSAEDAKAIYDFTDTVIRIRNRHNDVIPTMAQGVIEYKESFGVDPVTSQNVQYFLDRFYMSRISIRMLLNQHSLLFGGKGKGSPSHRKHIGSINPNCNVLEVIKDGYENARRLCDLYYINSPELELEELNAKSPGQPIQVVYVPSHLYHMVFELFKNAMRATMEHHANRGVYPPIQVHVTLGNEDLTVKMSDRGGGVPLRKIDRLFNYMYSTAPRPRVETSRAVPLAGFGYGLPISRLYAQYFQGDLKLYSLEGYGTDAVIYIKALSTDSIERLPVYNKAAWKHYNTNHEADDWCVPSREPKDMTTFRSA

Structure (SMILES)	IC50 [1]	IC50 [2]	inhibition at 0.003 µM [2]	hPDHK2 inhibitory rate at the lowest concentration of the test compound ([1]; lowest concentration of the test compound in the assay (<3 nmol/L), shown when IC50 value could not be calculated)
C[C@H]1CN(C(=O)c2c3cc(F)ccc3nn2C)Cc2cnc([C@@](C)(O)C(F)(F)F)n21 [Example 1]	5 nM	6 nM	–	–
C[C@H]1CN(C(=O)c2nc3ccc(F)cc3o2)Cc2cnc([C@@](C)(O)C(F)(F)F)n21 [Example 2]	15 nM	12 nM	–	–
C[C@H]1CN(C(=O)C2Cc3ccccc3C2)Cc2cnc([C@@](C)(O)C(F)(F)F)n21 [Example 3, (2,3-dihydro-1H-inden-2-yl)((S)-5-methyl-3-((R)-1,1,1-trifluoro-2-hydroxypropan-2-yl)-5,6-dihydroimidazo[1,5-a]pyrazin-7(8H)-yl)methanone]	14 nM	16 nM	–	–
C[C@H]1CN(C(=O)c2c3ccc(C#N)cc3nn2C)Cc2cnc([C@@](C)(O)C(F)(F)F)n21 [Example 4, 2-methyl-3-((S)-5-methyl-3-((R)-1,1,1-trifluoro-2-hydroxypropan-2-yl)-5,6,7,8-tetrahydroimidazo[1,5-a]pyrazine-7-carbonyl)-2H-indazole-6-carbonitrile]	5 nM	4 nM	–	–
C[C@H]1CN(C(=O)c2nn(C)c3cc(C#N)ccc23)Cc2cnc([C@@](C)(O)C(F)(F)F)n21 [Example 5, 1-methyl-3-((S)-5-methyl-3-((R)-1,1,1-trifluoro-2-hydroxypropan-2-yl)-5,6,7,8-tetrahydroimidazo[1,5-a]pyrazine-7-carbonyl)-1H-indazole-6-carbonitrile]	5 nM	< 3 nM	55%	–
C[C@H]1CN(C(=O)c2c3c(F)cc(F)cc3nn2C)Cc2cnc([C@@](C)(O)C(F)(F)F)n21 [Example 6]	11 nM	11 nM	–	–
C[C@H]1CN(C(=O)c2nn(C)c3cc(F)cc(F)c23)Cc2cnc([C@@](C)(O)C(F)(F)F)n21 [Example 7]	10 nM	8 nM	–	–
C[C@H]1CN(C(=O)c2cnc3ccc(F)cn23)Cc2cnc([C@@](C)(O)C(F)(F)F)n21 [Example 8]	34 nM	49 nM	–	–
C[C@H]1CN(C(=O)c2c3cc(F)c(F)cc3nn2C)Cc2cnc([C@@](C)(O)C(F)(F)F)n21 [Example 9, (5,6-difluoro-2-methyl-2H-indazol-3-yl) ((S)-5-methyl-3-((R)-1,1,1-trifluoro-2-hydroxypropan-2-yl)-5,6-dihydroimidazo[1,5-a]pyrazin-7(8H)-yl)methanone]	11 nM	7 nM	–	–
C[C@H]1CN(C(=O)c2nn(C)c3cc(F)c(F)cc23)Cc2cnc([C@@](C)(O)C(F)(F)F)n21 [Example 10, (5,6-difluoro-1-methyl-1H-indazol-3-yl)((S)-5-methyl-3-((R)-1,1,1-trifluoro-2-hydroxypropan-2-yl)-5,6-dihydroimidazo[1,5-a]pyrazin-7(8H)-yl)methanone]	13 nM	9 nM	–	–
C[C@H]1CN(C(=O)c2ccc3c(c2)OC(F)(F)O3)Cc2cnc([C@@](C)(O)C(F)(F)F)n21 [Example 11, (2,2-difluorobenzo[d][1,3]dioxol-5-yl)((S)-5-methyl-3-((R)-1,1,1-trifluoro-2-hydroxypropan-2-yl)-5,6-dihydroimidazo[1,5-a]pyrazin-7(8H)-yl)methanone]	15 nM	14 nM	–	–
C[C@H]1CN(C(=O)c2ccc3nn(C)cc3c2)Cc2cnc([C@@](C)(O)C(F)(F)F)n21 [Example 12]	10 nM	8 nM	–	–
C[C@H]1CN(C(=O)c2cc3ccccc3o2)Cc2cnc([C@@](C)(O)C(F)(F)F)n21 [Example 13]	36 nM	29 nM	–	–
C[C@H]1CN(C(=O)c2cc(C3CC3)nn2C)Cc2cnc([C@@](C)(O)C(F)(F)F)n21 [Example 14]	< 3 nM	< 3 nM	68%	57%
C[C@H]1CN(C(=O)c2cc(-c3ccccc3)nn2C)Cc2cnc([C@@](C)(O)C(F)(F)F)n21 [Example 15]	5 nM	3 nM	–	–
